Entries after “also recorded” stand apart in the source; their conditions may differ. Where two headings read alike, the source gives them in different places.
How the values were obtained:
MDA-MB231 cells = assay: Cell viability, crystal violet colorimetric assay; type: cell-based; conditions: 72 hrs; for IC50: tested at 0.02-0.1 mM
Experimental: (§1) Immortalised osteolytic metastatic breast cancer cell lines, a) hormone-dependent MCF-7 and b) hormone refractory MDA-MB231, together with the daughter line MDA-MB231TXSA were incubated with 5 gradual concentrations of compounds of the invention as described below. Cell viability was assessed with the crystal violet colorimetric assay and IC50s were evaluated.
(§2) Medium was removed from cell cultures and cells were fixed with 4% v/v formaldehyde for 5 mins at room temperature. Formalin was then removed and CV added for 10 mins at room temperature followed by several washes with dsH2O. Samples were allowed to dry overnight. The following day, 10% acetic acid was added for 15 mins and optical density at 620 nm was measured. Optical densities versus compound concentrations were plotted in graphs and IC50s estimated by linear regression analysis using the WorkOut (VictorX4) software.
(§3) MCF-7, MDA-MB231 and MDA-MB231TXSA cells were seeded in 96-well-plates and allowed to attach overnight. The following day media were replaced with fresh media containing the following compounds: Both free tetraethyl methylbisphosphonate (bpp(OEt)) and bpp(OEt) in 1:1 combination with the free chromanol and the biphosphonate conjugates were tested at 5 gradual concentrations of: 0.02, 0.04, 0.06, 0.08 and 0.1 mM.
(§4) Cells were cultured in the presence of the compounds for 72 hrs and viability was assessed on day 3 by crystal violet assay. The cell lines were selected for their high bone metastatic potential. The fluorescently transfected line MB231TXSA, derived from line MB231 is also used in animal studies (WP7).

MDA-MB231TXSA cells = assay: Cell viability, crystal violet colorimetric assay; type: cell-based; conditions: 72 hrs; for IC50: tested at 0.02-0.1 mM, read-out: IC50 values MB231-TXSA
Experimental: as §1, §2, §3, §4

RAW264.7 cells = assay: In vitro osteoclastogenesis of RAW264.7 (TRAP staining); type: cell-based, murine; conditions: RANKL-differentiated; γ-tocopherol at 1 μg/ml and 201 μg/ml; bpp(OEt) at increasing concentrations; FIG. 4
Experimental: Human peripheral blood mononuclear cells (PBMCs) and the RAW264.7 murine monocytic cell line were differentiated into osteoclast-like cells in the presence of RANKL plus M-CSF and have been used as model systems of osteoclastogenesis. Osteoclast-like cells, from Giant Cell Tumours (GCT) of bone specimens from three independent donors were used to investigate the effect of compounds of the invention on the bone resorbing activity of mature osteoclasts.
Cells were cultured in 96-well plates at a density of 1×10^4 cells/well in DMEM medium with 10% FCS, L-glutamine (2 mM) and Hepes (20 mM). Cells were allowed to attach for 4 hrs before treatment with RANKL (50 ng/ml) in the presence or absence of increasing concentrations of compounds of the invention as above. Medium and treatments were replaced on day three and TRAP activity determined on day 5. The overall number of viable cells were determined by crystal violet staining.
Osteoclast cultures established by the differentiation of RAW264.7 cells in wells were fixed and stained for tartrate resistant acid phosphatase (TRAP) as recommended by the manufacturer on days 4 and 5. TRAP positive cells were visualised by light microscopy and images taken with a digital camera.

mouse neonatal calvariae = assay: Calvarial organotypic bone growth assay (ex vivo); design: species or system mouse (Balb/c); conditions: ex vivo culture 10 days, FIG. 7; for bone formation in calvariae: above free BP or untreated
Experimental: Anexvivo model of cultured mouse neonatal calvariae to assess bone anabolic activity of each compound was performed as previously described by Garrett, I et al., (Methods Mol Med, 2003. 80: p. 183-198).
Briefly fifteen newborn, 4 day old Balb/c pubs were used for these experiments. Calvarial bones were dissected under sterile conditions and placed on sterile grids in 12 well plates containing culture media. Calvarial bones were cultured for 10 days in the presence of free γToc, BP-γToc or free BP. Bone morphogenetic protein 2 (BMP-2) was used as a positive control, with known bone anabolic activity in this assay.
Treatments were carried out in quadruplicate as shown below. Calvarial bones were embedded in paraffin wax and sections were stained with haematoxylin and eosin stain (H&E) and analysed using the nanozoom image analysis software.
• Untreated • Bpp(OEt) (BP) (15 μM) • BP (20 μM) • γ-Tocotrienol (15 μM) • γ-Tocotrienol (20 μM) • γ-Tocotrienol (100 μM) • BP-γ-tocotrienol conjugate (15 μM) • BP-γTocotrienol conjugate (20 μM) • BP-γ-Tocotrienol conjugate (100 μM) • BMP-2 (50 ng/ml)
New bone formation in treated calvariae was assessed by histological assessment of stained sections.

[1] = system: metastatic breast cancer cell lines (MCF-7, MDA-MB231, MDA-MB231TXSA); assay: Cell viability / antiproliferative activity, breast cancer lines; type: cell-based
Experimental: as §1, §2, §3, §4

[2] = system: Caspase-3 activity in MB231 breast cancer cell-line; assay: Caspase-3 enzymatic activity assay; type: cell-based
Experimental: Cells were grown in 12 well-plates in the presence of IC50 concentrations of compounds of the invention or culture medium with 0.1% v/v ethanol as control and were washed with PBS and incubated with lysis buffer for 15 mins at 4° C. Lysates were centrifuged at 15000 g. 20 μl of each lysate suspension was incubated with 100 μl of protease buffer containing 10 μM of fluorescent substrate zDEVD-AFC (3 samples/lysate) for 4 hrs at room temperature. Caspase-3 enzymatic activity was measured every 1 hr by fluorescence with excitation at 405 nm and emission at 515/30 nm.
Fluorescence measurements were plotted in graphs against time and were statistically analysed by two-way ANOVA followed by Bonferroni post-tests to identify statistically significant apoptotic activities of compounds of the invention (see FIG. 3).

EC50 (MDA-MB231 cells; Exp.1, * denotes EC50 value, read-out: EC50 value (starred) MB231) | IC50 (MDA-MB231 cells; Exp.2) | IC50 (MDA-MB231TXSA cells; Exp.1) | IC50 (MDA-MB231TXSA cells; Exp.2, unstarred values) | IC50 (MDA-MB231 cells; Exp.1, unstarred values) | EC50 (MDA-MB231TXSA cells; Exp.2, * denotes EC50 value, read-out: EC50 value (starred) MB231-TXSA) | Compound | osteoclastogenesis of Raw264.7 (RAW264.7 cells) | bone formation in calvariae (mouse neonatal calvariae) | antiproliferative activity compared with bpp(OEt) ([1]; esterified compounds and 1:1 mixtures) | antiproliferative activity compared with γ-tocopherol ([1]; upon esterification of γ-tocopherol) | effect on cell viability ([1]; viability assays and IC50s, 72 hrs) | pro-apoptotic activity (Caspase-3 activity) ([2]; IC50 concentrations, two-way ANOVA with Bonferroni post-tests) | time-point at which the increased Caspase-3 activity was present ([2]; measured every 1 hr for 4 hrs) | bone formation compared with free γToc and BMP-2 positive control (mouse neonatal calvariae; listed as BP-γToc)
312 µM | 55.7 µM | 97.4 µM | 233 µM | – | – | Cc1c(O)cc2c(c1C)O[C@](C)(CCC[C@H](C)CCC[C@H](C)CCCC(C)C)CC2 [γ-toc, γ-tocopherol, reference compound] | increased osteoclastogenesis | significantly increased bone formation | – | – | – | – | – | –
– | 49.7 µM | 79.3 µM | – | 124 µM | 189 µM | CCOP(=O)(OCC)C(CCC(=O)Oc1cc2c(c(C)c1C)OC(C)(CCCC(C)CCCC(C)CCCC(C)C)CC2)P(=O)(OCC)OCC (centres unmarked) [γ-toc-bpp(OEt), γ-tocopheryl bisphosphonic ester] | – | significantly increased bone formation | increased | increased | reduced cell viability | statistically significant pro-apoptotic activities | 3 h | far superior to the free γToc; also recorded: even greater than that seen with the BMP-2 positive control

Source: patent US11400160B2, “Multifunctional conjugates” (E.P.O.S IASIS Research and Development Limited, priority 2017, dated 2022)
